Source: patent US20040192617A1, “Process for preparing phenolic acid salts of gabapentin” (priority 2003, published 2004)
Read-outs that look alike come from different tables or passages of the source.

Experiments:
[1] = in water and across a wide range of pH; cited from earlier work
[2] = Solubility of the tannate salt, seen as precipitation from the reaction solution; type: physicochemical; settings: water/ethanol mixture, room temperature; salt precipitates from solution
Description: The completeness of the reaction and the formation of the tannate salt were followed by taking samples at different stages of the conversion process. Due to the large size of the tannate salt, it usually precipitates from solution upon formation. The absence or loss of gabapentin from solution is correlated with the formation of the tannate salt.
The conversion process used in this example to synthesize the tannate salt of gabapentin is done at room temperature as follows: 250 ml of purified water and 50 ml of ethanol are placed in a beaker. While mixing the water/ethanol mixture, tannic acid is added and mixing is continued to form a solution. While mixing the tannic acid solution, gabapentin powder is added slowly. The gabapentin reacts with the tannic acid to form the tannate salt. […] The ratio of tannic acid to gabapentin used is 0.8:1.

Compound | solubility [1] | solubility [2]
NCC1(CC(=O)O)CCCCC1 [Gabapentin, 1-(aminomethyl) cyclohexaneacetic acid] | freely soluble | 
gabapentin tannate |  | low solubility
